Measurements taken from patent publication US12409172B2, “Dosage regimen” (UNION therapeutics A/S, priority 2023, dated 2025).
Where “and” joins values, the source holds several entries; their conditions need not be identical. Identical values can stand only once.

How the values were obtained:
[1] = Population pharmacokinetics (popPK) model for orismilast; design: species or system human
Method: All subjects were treated with orismilast as IR capsule, IR solution, IR tablet or MR tablet with available PK samples. Although the modified release tablet was the formulation selected for further studies, the popPK model was also built using the immediate release formulations (IR solution, IR tablet and IR capsule), especially to obtain stable estimates of elimination parameters (clearances) across formulations and obtain a robust model to support the simulation.
PopPK parameters were estimated by non-linear mixed effect modelling using MONOLIX. Mixed effects models describe the influence of both fixed effects and random effects. The random effects are typically used to capture the variability which can be split in residual variability (error) and between-subject variability.
The population model was defined by 4 components: • 1. The structural popPK model components, which defines the PK parameters and describe the plasma concentration-time profiles of orismilast. • 2. The inter-individual random effect model component, which describes the inter-individual variation (IIV) and inter-occasion variation (IOV) in PK parameters after correction for fixed effects. • 3. The residual error (or random effect) model component, which describes the underlying distribution of the error in the measured concentrations. • 4. The covariate model component, which describes the influence of fixed effects (i.e., demographic factors) on PK parameters.
The search for the final model followed the following stepwise strategy: • 1. Selection of the simplest structural model, which predicts the plasma concentration as a function of time and dose, based on smallest objective function (OF) and by the pattern in the residual plots. The best structural model, the most appropriate.IIV and IOV models, and the residual error model, were identified. The structural model was determined using the rich Phase I data from healthy volunteers (LP0058-S01, LP0058-1005, LP0058-1114, LP0058-1362, LP0058-1324 and LP0058-1442). • 2. Preliminary visual check using predictive check approach was applied to sparse data from psoriasis patients (study LP0058-1072) to assess the predictability capacities of the structural model for patient data. • 3. Psoriasis patient data were included in the model and the model was refined or adjusted if necessary. • 4. Graphical exploration of the covariates: between individual covariates and EBE of parameter or random effects. • 5. Determination of the covariate model. • 6. Selection of significant covariates to obtain the FINAL model. • 7. Inclusion of new studies in the model (e.g. UN1500001-203 and CIB1353A101) was performed by repeating steps 2 to 6.
The pre-specified covariates that were suspected a priori of having an influence on PK parameters, were included in the full model and the selection of the final model with relevant covariates were based on the statistical Wald test (keep covariates with p-value <0.05). The influence of body weight on PK parameters was included using fixed standard allometric scales.
The model was evaluated using diagnostic and goodness of fit plots and validated using Visual Predictive Checks. SAS® software V9.4 and Monolix Suite version 2021R1 release were used.
The structural model was parameterised in terms of apparent clearance (CL/F), volume of distribution of central compartment (V1/F), inter-compartmental clearance (Q/F) and volume of distribution for peripheral compartment (V2/F). The absorption was described by a 1st—order rate constant (ka1) for first absorption process, 1st—order rate constant (ka2) for second absorption process, fraction of dose absorbed through the first process (F1) and lag time (tlag2) for the start of the second phase. The relative bioavailability was also added to characterize the difference between the formulations, it was set to 1 for the IR solution, so, the other formulations were expressed relatively to the IR solution. […]

CYP2D6 = CYP2D6 (Homo sapiens, UniProt P10635); assay: CYP2D6 inhibition in vitro; format: in vitro ADME
From the text: Concomitant use of orismilast • with other drugs mainly metabolized by the cytochrome CYP2D6 has not been studied clinically.

[2] = test system: TNF-α secretion from human whole blood; assay: LPS and SEB-induced TNF-α secretion from human whole blood; format: cell-based; conditions: average; both LPS and SEB-induced TNF-α secretion from human whole blood
[3] = test system: human peripheral blood mononuclear cells PBMC; conditions: in vitro; cited from earlier work

Sequence of CYP2D6 (P10635 whole entry): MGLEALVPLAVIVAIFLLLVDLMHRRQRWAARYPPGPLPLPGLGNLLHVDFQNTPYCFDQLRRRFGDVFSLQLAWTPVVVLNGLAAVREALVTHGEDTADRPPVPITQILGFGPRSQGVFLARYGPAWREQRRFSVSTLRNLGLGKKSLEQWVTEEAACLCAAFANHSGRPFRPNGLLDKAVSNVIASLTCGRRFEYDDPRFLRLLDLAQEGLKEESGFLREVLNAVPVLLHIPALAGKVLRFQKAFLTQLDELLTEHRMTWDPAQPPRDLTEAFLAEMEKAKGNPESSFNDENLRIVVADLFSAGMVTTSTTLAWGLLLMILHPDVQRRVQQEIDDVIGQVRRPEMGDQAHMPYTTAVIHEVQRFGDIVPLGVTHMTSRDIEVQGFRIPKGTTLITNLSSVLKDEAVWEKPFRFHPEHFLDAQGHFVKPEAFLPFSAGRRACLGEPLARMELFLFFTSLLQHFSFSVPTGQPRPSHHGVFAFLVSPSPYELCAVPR

O=C(Cc1c(Cl)c[n+]([O-])cc1Cl)c1ccc(OC(F)F)c2c1OC1(CCS(=O)(=O)CC1)O2 [orismilast, 2-(3,5-dichloro-1-oxidopyridin-1-ium-4-yl)-1-[7-(difluoromethoxy)-1′,1′-dioxospiro[1,3-benzodioxole-2,4′-thiane]-4-yl]ethanone]
variability of the central PK parameters [1]: 27% and 34% | AUClast GM ratio (popPK/NCA) ([1]; 1442 - Part 1 (MR, 30 mg)): 1.03 | AUClast GM ratio (popPK/NCA) ([1]; 1442 - Part 2 (Fast, 30 mg)): 1.14 | AUClast GM ratio (popPK/NCA) ([1]; 1442 - Part 3 (D1 = 10 mg)): 0.98 | AUClast GM ratio (popPK/NCA) ([1]; 1442 - Part 3 (D17 = 60 mg)): 0.97 | AUClast GM ratio (popPK/NCA) ([1]; CIBI3S3A101 (D1 = 10 mg)): 0.98 | variability of Q/F ([1]; peripheral compartment): 383% | variability of V2/F ([1]; peripheral compartment): 495% | inhibition of CYP2D6 (CYP2D6): competitive direct inhibitor | potency relative to apremilast on a molar basis [2]: 23 times | secretion of Th1 (TNFα and IFNγ), Th17 (IL-22 and IL-23) and Th2 (IL-4, IL-5, and IL-13) related cytokines in PBMC [3]: inhibited
